Reference: PMC8637440, “Structural Modifications Yield Novel Insights Into the Intriguing Pharmacodynamic Potential of Anti-inflammatory Nitro-Fatty Acids” (Frontiers in Pharmacology, 2021)
Entries after “also recorded” stand apart in the source; their conditions may differ.

Legend:
COX-2 = molecular target: T1, COX-2 (Homo sapiens, UniProt P35354); test: Cell-based COX-2 activity assay in IL-1β-stimulated A549 cells; design: endogenous in cells; host or cells: A549 stimulated with 1 ng/ml IL-1β; settings: 10 µM, 24 h, 1 ng/ml IL-1β
T1 sequence (P35354 18-604): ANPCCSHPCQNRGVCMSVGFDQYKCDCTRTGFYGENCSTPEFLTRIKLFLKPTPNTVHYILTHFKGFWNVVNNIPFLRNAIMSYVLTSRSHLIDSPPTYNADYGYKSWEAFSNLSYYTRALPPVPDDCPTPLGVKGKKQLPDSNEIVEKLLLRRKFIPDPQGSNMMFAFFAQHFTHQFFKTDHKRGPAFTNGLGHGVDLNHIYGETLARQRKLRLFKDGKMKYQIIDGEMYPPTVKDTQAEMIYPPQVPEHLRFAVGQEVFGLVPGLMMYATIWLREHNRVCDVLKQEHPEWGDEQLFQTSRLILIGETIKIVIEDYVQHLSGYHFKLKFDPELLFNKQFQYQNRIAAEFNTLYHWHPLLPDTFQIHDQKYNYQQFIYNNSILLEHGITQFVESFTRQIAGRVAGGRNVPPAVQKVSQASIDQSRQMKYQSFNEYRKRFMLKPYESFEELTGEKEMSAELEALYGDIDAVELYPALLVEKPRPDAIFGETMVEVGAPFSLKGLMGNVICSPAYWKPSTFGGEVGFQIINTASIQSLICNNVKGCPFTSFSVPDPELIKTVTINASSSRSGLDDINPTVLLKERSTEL
Description: The COX-2 inhibitory effects of NFA were investigated using a cell-based COX-2 activity assay performed using a Cyclooxygenase (COX) Activity Assay Kit (Fluorometric) from Abcam (Cambridge, UK; #ab204699). A549 cells (3 × 10^6) were seeded in 10-cm dishes and allowed to become adherent for 3 h. […] Then, cells were detached with a cell scraper and washed twice with 1× PBS before being resuspended in 100 µl lysis buffer (1× PBS containing 1% NP-40). The cells were incubated for 30 min with shaking on ice. After 3-min centrifugation at 12,000 ×g at 4°C, 20 µl supernatant was used for the COX activity assay. The assay was performed according to the manufacturer’s instructions in a white 96-well microplate with a clear bottom in duplicate. […] COX-2 activity was normalized to protein concentration.
Suppl. Figure 5: Effects of NFA on cellular COX-2 activity. COX-2 Activity of A549 cells […]
h. Cells were lysed, and COX-2 activity was measured using Cyclooxygenase (COX) Activity Assay Kit (Fluorometric) from Abcam. (A) NFA derivatives with different chain length. (B) NFA derivatives with different Michael acceptor position. Samples were normalized to protein concentration. Data are presented as mean + SD of n=4. COX, cyclooxygenase; DMSO, dimethyl sulfoxide NFA, nitro fatty acids .
(1 picture or pasted object on this page, not shown here)

PMNL = test: WST-1 viability assay in PMNL; format: cell-based, human; settings: 20 µM, 2 h (data not shown)
Description: Cell viability was analyzed with the WST-1 assay based on the cleavage of the stable tetrazolium salt WST-1 by the mitochondrial reductase system. Cells were seeded in the appropriate densities in a clear 96-well plate and settled overnight at 37°C in 5% CO2. […] Cell viability was analyzed by adding 10 µl WST-1 solution (Roche, Basel, Switzerland) and subsequently incubating the cells at 37°C for another 30–40 min. Absorbance was measured at 450 nm with a control wavelength at 620 nm using a plate reader.
5-LO, the key enzyme in leukotriene biosynthesis, catalyzes the first steps in leukotriene formation from AA. Oxidation of AA by 5-LO leads to the formation of 5-hydroperoxyeicosatetraenoic acid (5-HPETE), which can further be converted to LTA4 or reduced to 5-HETE. In the next step, LTA4 is hydrolyzed by LTA4 hydrolase to produce LTB4. Moreover, 12- and 15-LO catalyze the formation of 12- and 15-H(P)ETE [12- and 15-hydro(per)oxyeicosatetraenoic acid]. Nitroalkylation of 5-LO cysteines 416 and 418 by NFA leads to enzyme inhibition and beneficial anti-inflammatory effects, whereas no impact has been observed on 12- and 15-LO so far ([Awwad et al., 2014]). 5-LO product formation of purified PMNL was triggered by incubation with 2.5 µM of the calcium ionophore A23187 in the presence of 20 µM AA. […] Shifting the nitro group from position 9 to 10, or rather, towards position 11 (18.11.11), led to a decreased impact on 15-LO product formation (Table 3). […] Therefore, 5-LO product formation of purified PMNL after treatment with A23187 was determined in absence of AA which should strongly increase the 5-LO-inhibitory potency of competitive inhibitors. However, IC50 values were similar under these conditions strengthening the hypothesis of NFA as presumably non-competitive 5-LO inhibitors. Using a WST-1 viability assay we assessed possible cytotoxic effects of the strongest 5-LO-inhibitory NFA derivatives in PMNL including 18.4.4, 18.5.5, 18.6.6, 18.7.7, 18.8.8, 18.8.9, 18.9.9, 18.9.10, 18.10.10, 20.9.9, and 22.9.9.

Compound | effect on COX-2 activity in IL-1β-stimulated A549 cells (COX-2) | cytotoxic effects in PMNL (WST-1 viability) (PMNL)
CCCCCCCC=C(CCCCCCCCC(=O)O)[N+](=O)[O-] [18.10.10, 10-nitro-octadec-10-enoic acid] | slight COX-2 inhibition | failed to induce significant cytotoxic effects
CCCCCCCCCCCCCC=C(CCC(=O)O)[N+](=O)[O-] [18.4.4, 4-nitro-octadec-4-enoic acid] | – | failed to induce significant cytotoxic effects
CCCCCCCCCCC=C(CCCCCC(=O)O)[N+](=O)[O-] [18.7.7, 7-nitro-octadec-7-enoic acid] | – | failed to induce significant cytotoxic effects
CCCCCCC=C(CCCCCCCC(=O)O)[N+](=O)[O-] [16.9.9, 9-nitro-hexadec-9-enoic acid] | failed increasing COX-2 product formation | –
CCCCCCCCC=C(CCCCCCCC(=O)O)[N+](=O)[O-] [18.9.9, 9-nitro-octadec-9-enoic acid] | no COX-2 inhibition | failed to induce significant cytotoxic effects
CCCCC=C(CCCCCCCC(=O)O)[N+](=O)[O-] [14.9.9, 9-nitro-tetradec-9-enoic acid] | failed increasing COX-2 product formation | –
CCCCCCCCCCCCC=C(CCCC(=O)O)[N+](=O)[O-] [18.5.5, 5-nitro-octadec-5-enoic acid] | – | failed to induce significant cytotoxic effects
CCC=C(CCCCCCCC(=O)O)[N+](=O)[O-] [12.9.9, 9-nitro-dodec-9-enoic acid] | failed increasing COX-2 product formation | –
CCCCCCCCC(=CCCCCCCCC(=O)O)[N+](=O)[O-] [18.9.10, 10-nitro-octadec-9-enoic acid] | – | failed to induce significant cytotoxic effects
CCCCCCCCCCCC=C(CCCCC(=O)O)[N+](=O)[O-] [18.6.6, 6-nitro-octadec-6-enoic acid] | induced COX-2 activity | failed to induce significant cytotoxic effects
CCCCCCCCCC(=CCCCCCCC(=O)O)[N+](=O)[O-] [18.8.9, 9-nitro-octadec-8-enoic acid] | – | failed to induce significant cytotoxic effects
CCCCCCCCCCC=C(CCCCCCCC(=O)O)[N+](=O)[O-] [20.9.9, 9-nitro-eicos-9-enoic acid] | no COX-2 inhibition; also recorded: increased COX-2 product formation | failed to induce significant cytotoxic effects
CCCCCCCCCC=C(CCCCCCC(=O)O)[N+](=O)[O-] [18.8.8, 8-nitro-octadec-8-enoic acid] | induced COX-2 activity | failed to induce significant cytotoxic effects
